# From ChEMBL document CHEMBL3507680, “University of Dundee, Gates Library screen for HepG2 cell viability”
# Assay: Human HepG2 cell viability assay in 384 well format
# Format: toxicity, cell-based
# Parameters: dose 125 nL, time 70.5 hour; concentration not given beside the values
# Settings: HepG2 cells, read-out: Inhibition
row,Compound,cytotoxicity at 70.5 h [%]
1,O=C(C1CCCC1)N1C[C@H]2CNC[C@H]2C1,-8.49
2,O=C(Cc1cccc(F)c1)N1C[C@H]2CN(Cc3cccnc3)C[C@H]2C1,-12
3,COc1ccc(CN2Cc3[nH]nc(C(=O)N(C)C)c3C2)cc1,-11.8
4,O=C(NCc1ccco1)[C@H]1C[C@H]2OCC[C@H]2N(C(=O)c2ccnnc2)C1,-12.6
5,O=C(NCC1CC1)C1CN(Cc2cccs2)Cc2ccnn2C1 (stereo unspecified),-13.4
6,O=C(c1ccco1)N1CCOCC2(C1)CN(c1ccoc1)C(=O)CO2 (stereo unspecified),-10
7,O=C(NC1CC1)N1CCOCC2(C1)CN(c1ccccc1)C(=O)CO2 (stereo unspecified),-9.6
8,CC(C)CNC(=O)c1cc2c(s1)CCN2S(C)(=O)=O,-10.9
9,CCOCC1CN(C(=O)N2CCCC2)Cc2cnn(C)c21 (stereo unspecified),-6.47
10,CS(=O)(=O)N1CCc2sc(C(=O)NCc3ccncc3)cc21,-7.65
11,Cc1occc1C(=O)N1C[C@@H](C(=O)NCc2ccco2)C[C@H]2OCC[C@H]21,-10.4
12,CCOCC1CN(C(=O)C2=CCCC2)Cc2cnn(C)c21 (stereo unspecified),-14.7
13,CN1CCN(C(=O)[C@@H]2C[C@@H]3CCN(c4cccc(F)c4)C[C@H]3O2)CC1,-11.9
14,CCOCC1CN(C(=O)c2cccc(C)n2)Cc2cnn(C)c21 (stereo unspecified),-11.5
15,Cc1ccc(C(=O)N2CCO[C@H]3[C@H](OCCN(C)C)CC[C@@H]32)cn1,-1.99
16,CN1CCN(C[C@@H]2OC[C@H]3CN(Cc4ccncc4)CC[C@H]32)CC1,0.409
17,CN(C)C(=O)COCC1CN(CC2CCOCC2)Cc2ncn(C)c21 (stereo unspecified),-1.41
18,CN1CCN(C[C@H]2OC[C@@H]3CCN(Cc4ccsc4)C[C@@H]32)CC1,-0.843
19,Cc1ccc(N2CCc3ncc(CNc4ccccn4)n3CC2)nn1,-1.74
20,CN(C)CCN1Cc2ncn(C)c2C(COCC(=O)N(C)C)C1 (stereo unspecified),-8.47
21,CC1=N[C@@]2(CC[C@@H]3CN(C(=O)NCC(C)C)C[C@@H]32)C(=O)N1C,-0.53
22,Cc1noc([C@@]23CCO[C@@H]2CCN(C(=O)c2cc(C)c(C)s2)C3)n1,-0.38
23,Cc1ccc(C(=O)N2CCN3C[C@H](Oc4cncnc4)C[C@H]3C2)cn1,-0.158
24,O=C(c1ccncc1)N1CCN2C[C@H](Oc3cncnc3)C[C@H]2C1,1.56
25,c1ccc(NCc2cn3c(n2)CN(Cc2nccs2)CC3)nc1,-0.336
26,Cc1noc([C@@]23CCO[C@@H]2CCN(C(=O)c2cc(C)on2)C3)n1,-3.23

row,Compound,cytotoxicity at 70.5 h [%]
1,Cc1noc([C@@]23CCO[C@@H]2CCN(C(=O)c2ccsc2)C3)n1,-1.85
2,COCCN1C(=O)[C@]2(CC[C@@H]3CN(C(=O)NC(C)C)C[C@@H]32)N=C1C,25.4
3,CC1=N[C@@]2(CC[C@@H]3CN(C(=O)NCC(C)C)C[C@@H]32)C(=O)N1CC(C)C,12.3
4,O=C1NC(c2ccccc2)=N[C@@]12CC[C@@H]1CN(Cc3ccoc3)C[C@@H]12,-3.26
5,CCS(=O)(=O)N1CCC2(CC(=O)N(c3cnn(C)c3)C2)C1 (stereo unspecified),-2.5
6,COCC1CN(Cc2cc(C)on2)Cc2cn(CC3CC3)nc21 (stereo unspecified),-1.87
7,O=C(c1ccsc1)N1CCc2c(CN3CCCC3)n[nH]c2C1,0.233
8,O=C1NC(c2ccccc2)=N[C@@]12CC[C@@H]1CN(CC3CCOCC3)C[C@@H]12,23.3
9,c1ccc(C[C@H]2[C@H](N3CCOCC3)CCN2Cc2cccnc2)cc1,2.51
10,CO[C@H]1CO[C@@]2(CCCN(C(=O)C3=CCCCC3)C2)C1,-2.72
11,CN(C)C(=O)N1CCc2c(nnn2C)C1COCc1ccccc1 (stereo unspecified),-2.85
12,O=C([C@H]1C[C@H]2OCC[C@H]2N(C(=O)c2ccncc2)C1)N1CCCCO1,3.71
13,Cn1cccc1C(=O)NCc1cnc2n1CCN(C(=O)N1CCCC1)C2,-4.52
14,O=C(c1ccsc1)N1CCc2c(CNc3ncccn3)n[nH]c2C1,3.39
15,CC(C)N1CCC2(CCCNC2)C1=O (stereo unspecified),-14.6
16,O=C(c1ccccc1)N1CCOC2(CCN(Cc3cccs3)CC2)C1,12.2
17,CC(=O)N1CCC12CCN(Cc1ccco1)CC2,19.9
18,COCCN1CCC2(CC1)CN(C(=O)c1ccco1)CCO2,12.3
19,O=C(c1ccncc1F)N1CC2CC1(C(=O)N1CCCC1)C2,-11.2
20,COCC(=O)N1CCOCC2(CCN(Cc3cccs3)C2)C1 (stereo unspecified),-10.6
21,CC(C)CCN1C2(CCN(C(=O)CN(C)C)C2)c2ccccc2S1(=O)=O (stereo unspecified),-5.18
22,O=C(c1cccs1)N1CCOCC2(C1)CN(c1cccnc1)C(=O)CO2 (stereo unspecified),-16.5
23,CN(C)S(=O)(=O)N1C[C@@H]2COC[C@]2(COc2ccccn2)C1,-17.2
24,O=C([C@H]1C[C@@H]2CCN(c3cccc(F)c3)C[C@H]2O1)N1CCCC1,-14.2
25,O=C([C@@H]1C[C@@H]2CCN(c3cccc(F)c3)C[C@H]2O1)N1CCCC1,27.2
26,CC[C@@H]1N(Cc2ccc(C)o2)CCC[C@]12CCC(=O)N2CCOC,16.8

row,Compound,cytotoxicity at 70.5 h [%]
1,CC[C@@H]1N(Cc2ccoc2)CCC[C@]12CCC(=O)N2CCOC,-5.78
2,O=C([C@H]1C[C@@H]2CCN(C3CCOCC3)C[C@H]2O1)N1CCCC1,-4.47
3,Cn1cc(CN2C[C@@H]3COC[C@]3(C(=O)NCCc3ccccc3)C2)cn1,-8.15
4,CN(C)C(=O)[C@@H]1C[C@@H]2CCN(C3CCOCC3)C[C@H]2O1,-4.53
5,CN(C)CCO[C@@H]1CC[C@H]2[C@H]1OCCN2C(=O)c1ccnnc1,22.4
6,O=C([C@@H]1C[C@@H]2CCN(C3CCOCC3)C[C@H]2O1)N1CCOCC1,-0.695
7,O=C(Cc1cccc(F)c1)N1CCN2C[C@H](Oc3cncnc3)C[C@H]2C1,-2.68
8,CCOC[C@@H]1CC[C@H]2[C@H](CCN2Cc2c(C)noc2C)O1,-0.0549
9,COCCN1C[C@@H](C)[C@@]2(COCCN(C(=O)c3ccno3)C2)C1,-1.41
10,Cc1noc(C)c1CN1CC[C@H]2O[C@@H](C(=O)N3CCCC3)CC[C@H]21,6.38
11,Cc1noc(C)c1CN1CC[C@@H]2O[C@@H](COCC3CC3)CC[C@@H]21,-4.44
12,O=S(=O)(C1CC1)N1CCn2cc(CNc3ccccn3)nc2C1,-0.935
13,COCc1cnc2n1CCN(C1CCCC1)C2C (stereo unspecified),5.67
14,Cc1nc(CN2CCCn3cnc(COCC4CC4)c3C2)cs1,-1.49
15,CCCS(=O)(=O)N1CCn2cc(CNc3ccccn3)nc2C1,-2.49
16,CO[C@@H]1CCN(c2nnc(C)s2)C[C@@H]1Cc1cccc(C)c1,-0.0343
17,O=C(c1cccs1)N1CCC[C@]2(C[C@@H](OCc3ccncc3)CO2)C1,-4.03
18,Cc1nc(CN2CCc3ncnc(C4CCOC4)c3CC2)cs1 (stereo unspecified),0.032
19,Cn1cc(N2CC3(CCN(CC4CC4)C3)CC2=O)cn1 (stereo unspecified),-2.96
20,Cc1ccc(CN2C[C@H](C(=O)N3CCCCO3)[C@@H]3CCO[C@@H]3C2)o1,-5.78
21,Cc1noc([C@@]23CCO[C@@H]2CCN(CC2CCOCC2)C3)n1,-5.71
22,Cn1cccc1C(=O)N[C@@H]1CN(CC2CC2)[C@@H]2COC[C@@H]21,-5.94
23,COCCN1C[C@@H]2CCCO[C@@H]2[C@H](NC(=O)c2cnccn2)C1,-0.647
24,O=C(C1=CCCC1)N1CCC[C@]2(C[C@@H](OCc3ccncc3)CO2)C1,0.64
25,Cc1nc(CN2CCn3cc(CNC(=O)C4CCC4)nc3C2)cs1,14
26,CO[C@H]1CN(Cc2cccc(C#N)c2)[C@@H]2COC[C@H]12,-0.497

row,Compound,cytotoxicity at 70.5 h [%]
1,O=C(O)[C@]12CCCN(Cc3ccccc3)C[C@H]1CN(c1ncccn1)C2,-5.39
2,Cc1nnc(N2CC[C@H](OCC3CC3)[C@@H](Cc3ccccc3)C2)s1,11.8
3,O=C([C@H]1CN(CCc2ccccc2)C[C@H]2OCC[C@@H]12)N1CCCO1,6.27
4,CN(C)C[C@H]1C[C@@H]2CN(Cc3ccco3)C[C@@H]2O1,-16.1
5,O=C1[C@H]2CN(Cc3cccs3)C[C@H]2CN1CCN1CCCC1,12
6,CN(C)CCN1C(=O)CCC12CCN(Cc1cccs1)CC2,-11.7
7,CC(C)N(C)C[C@H]1C[C@@H]2CN(Cc3ccco3)C[C@@H]2O1,-1.96
8,CC(C)Nc1nc(N2CCCC2)nc2c1CCN(S(C)(=O)=O)CC2,-10.7
9,CN(C)CCOCc1nnc2n1CCN(CC1CC1)CC2,25.8
10,CCN(CC)Cc1cn2c(n1)CN(C1CCOC1)CC2 (stereo unspecified),-4.42
11,O=C(c1ccncc1)N1CCN2C[C@H](Oc3cccc(F)c3)C[C@H]2C1,-0.421
12,CC1c2ncc(COCc3ccccn3)n2CCN1C1CCCC1 (stereo unspecified),-2.61
13,CN1CC(=O)N(c2ccccc2)CC12CCN(Cc1nccs1)C2 (stereo unspecified),3.9
14,CC(C)NC(=O)[C@H]1C[C@@H]2[C@@H](C1)OCCN2Cc1cccnc1,-2.77
15,COCC1CN(Cc2ccc(C)o2)Cc2cn(C)nc21 (stereo unspecified),3.14
16,CN(C)CCO[C@H]1CN(Cc2cccc(C#N)c2)[C@@H]2COC[C@H]12,-1.49
17,O=C(CC1CC1)N[C@@H]1CN(Cc2ccncc2)C[C@@H]2CCCO[C@@H]21,-0.814
18,c1ccc(N2CC3(CCN(Cc4cccnc4)C3)C2)nc1,-7.68
19,Cc1cccc(CN2Cc3ncn(C)c3C(COCC(=O)N(C)C)C2)n1 (stereo unspecified),-3.93
20,CC1c2ncc(CN3CCN(C)CC3)n2CCN1Cc1cnn(C)c1 (stereo unspecified),13.6
21,Cn1cnc2c1C(COCc1ccccc1)N(Cc1cccnc1)CC2 (stereo unspecified),-0.0183
22,Cn1cnc2c1C(COCc1cccnc1)N(Cc1nccs1)CC2 (stereo unspecified),-1.3
23,Cc1ccc(CN2CC[C@@H](N3CCOCC3)[C@@H]2Cc2cccnc2)o1,-6.64
